From PubChem BioAssay (NCI) come the findings set out here.

Among the test systems are NCI-H23 lung; SK-OV-3 ovarian; CAKI-1 renal; UACC-62 melanoma; SK-MEL-5 melanoma; OVCAR-8 ovarian; NCI/ADR-RES ovarian; SNB-75 CNS; TK-10 renal; SF-268 CNS.
Common to all, as to assay: NCI-60 cell line screen, 48 h

The structures appear in SMILES notation. Where “and” joins values, the source holds several entries; their conditions need not be identical. Identical values can stand only once.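 Briefly, cells in 96-well plates were exposed to five compound concentrations for 48 h, and endpoints were estimated by linear interpolation. GI50 marks 50% less growth. TGI marks complete inhibition of growth.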

On to `COc1ccccc1CNCCCN1C(=O)c2ccc3c4c(ccc(c24)C1=O)C(=O)N(CCCNCc1ccccc1OC)C3=O`, for which the GI50 is 0.179 µM in the experiment on NCI-H23 lung; 0.352 µM with SK-OV-3 ovarian; 0.233 µM with CAKI-1 renal; 0.198 µM with UACC-62 melanoma; 0.155 µM in the experiment on SK-MEL-5 melanoma; 0.137 µM in the experiment on OVCAR-8 ovarian. Besides, the GI50 with NCI/ADR-RES ovarian is 1.19 µM; with SNB-75 CNS, 0.283 µM; in the experiment with TK-10 renal, 0.17 µM; with SF-268 CNS, 0.257 µM. Also, the TGI in the experiment with NCI-H23 lung came out at 0.443 µM; in the experiment on SK-OV-3 ovarian, 1 µM; with CAKI-1 renal, 0.725 µM; in the experiment with UACC-62 melanoma, 0.407 µM; with SK-MEL-5 melanoma, 0.29 µM; with OVCAR-8 ovarian, 2.26 µM. Also, the TGI in the experiment with NCI/ADR-RES ovarian is 4.54 µM; in the experiment with SNB-75 CNS, 0.754 µM; in the experiment on TK-10 renal it was 0.466 µM; in the experiment with SF-268 CNS, 0.834 µM.
For `Cn1cc(-c2ccc3c(c2)ncn3-c2cc(NS(=O)(=O)C3CC3)cc(-c3ccc(F)cc3F)c2)cn1`, the GI50 in the experiment with NCI-H23 lung was 20.6 µM; in the experiment on SK-OV-3 ovarian it was 10.2 µM; in the experiment on CAKI-1 renal, 3.77 µM; in the experiment with UACC-62 melanoma it was 25.5 µM; in the experiment with SK-MEL-5 melanoma, 13.1 µM; with OVCAR-8 ovarian it was 15.4 µM. The GI50 was 13.6 µM in the experiment with NCI/ADR-RES ovarian, 0.59 µM in the experiment on SNB-75 CNS, 2.73 µM with TK-10 renal and 3.01 µM in the experiment with SF-268 CNS. In addition, the TGI was greater than 100 µM with NCI-H23 lung; greater than 100 µM in the experiment with SK-OV-3 ovarian; greater than 100 µM in the experiment with CAKI-1 renal; 73.1 µM in the experiment on UACC-62 melanoma; 32 µM in the experiment with SK-MEL-5 melanoma; greater than 100 µM in the experiment on OVCAR-8 ovarian. Also, the TGI was greater than 100 µM in the experiment with NCI/ADR-RES ovarian, 8.28 µM with SNB-75 CNS, 72.7 µM in the experiment on TK-10 renal and greater than 100 µM in the experiment on SF-268 CNS.
For the molecule `O=C(CC1(O)C(=O)Nc2c(Cl)cc(Cl)cc21)c1cccc([N+](=O)[O-])c1` (centres undefined), the TGI was 52.3 µM in the experiment with NCI-H23 lung; greater than 100 µM with SK-OV-3 ovarian; greater than 93.2 µM with CAKI-1 renal; 44.7 µM with UACC-62 melanoma; 30.9 µM with SK-MEL-5 melanoma; greater than 83.9 µM with OVCAR-8 ovarian. Also, the TGI is greater than 100 µM in the experiment on NCI/ADR-RES ovarian, 68.2 µM in the experiment with SNB-75 CNS, greater than 100 µM with TK-10 renal and greater than 100 µM in the experiment on SF-268 CNS.
Take `COc1ccc(-n2c(=O)c3ccccc3n(Cc3ccc(C(=O)NO)cc3)c2=O)cc1`: the GI50 in the experiment on NCI-H23 lung was 1.78 µM; with SK-OV-3 ovarian, 2.45 µM; with CAKI-1 renal, 6.39 µM; with UACC-62 melanoma, 1.8 µM; in the experiment on SK-MEL-5 melanoma, 1.73 µM; in the experiment with OVCAR-8 ovarian it was 1.8 µM. Moreover, the GI50 is 18.2 µM with NCI/ADR-RES ovarian, 1.72 µM with SNB-75 CNS, 2.33 µM in the experiment with TK-10 renal and 1.91 µM with SF-268 CNS. Besides, the TGI worked out at 4.29 µM with NCI-H23 lung; 6.69 µM with SK-OV-3 ovarian; 23.9 µM in the experiment with CAKI-1 renal; 4.28 µM in the experiment on UACC-62 melanoma; 3.45 µM with SK-MEL-5 melanoma; 5.88 µM with OVCAR-8 ovarian. The TGI is greater than 100 µM in the experiment on NCI/ADR-RES ovarian, 5.71 µM with SNB-75 CNS, 12.9 µM in the experiment on TK-10 renal and 4.25 µM with SF-268 CNS.
Consider `CN1CCN(C(=O)/C=C/c2ccc([N+](=O)[O-])o2)CC1`, for which the GI50 in the experiment with NCI-H23 lung is 8.49 µM; with SK-OV-3 ovarian, 29 µM; in the experiment on CAKI-1 renal it was 10.6 µM; in the experiment on UACC-62 melanoma, 11.1 µM; in the experiment on SK-MEL-5 melanoma it was 7.52 µM; in the experiment on OVCAR-8 ovarian, 18.5 µM. Moreover, the GI50 in the experiment with NCI/ADR-RES ovarian was 14.9 µM; in the experiment on SNB-75 CNS, 21.6 µM; in the experiment with TK-10 renal, 31.7 µM; in the experiment on SF-268 CNS, 20.9 µM. In addition, the TGI was 22 µM with NCI-H23 lung; greater than 100 µM in the experiment on SK-OV-3 ovarian; 34.3 µM in the experiment on CAKI-1 renal; 23.4 µM in the experiment with UACC-62 melanoma; 20.4 µM in the experiment with SK-MEL-5 melanoma; greater than 100 µM in the experiment on OVCAR-8 ovarian. Also, the TGI is 52.5 µM in the experiment with NCI/ADR-RES ovarian, 75.8 µM with SNB-75 CNS, greater than 100 µM in the experiment with TK-10 renal and 84.1 µM in the experiment on SF-268 CNS.
Take `CNS(=O)(=O)Nc1nccc(Cc2c(C)c3ccc(Oc4ncccn4)cc3oc2=O)c1F`: the GI50 is 0.061 µM and 0.148 µM in the experiment with NCI-H23 lung; 1.34 µM in the experiment on CAKI-1 renal; < 0.0105 µM and 0.00277 µM in the experiment with UACC-62 melanoma; 0.153 µM and 0.926 µM in the experiment on SK-MEL-5 melanoma; 33.8 µM and > 10 µM with OVCAR-8 ovarian; 20.2 µM and > 10 µM with NCI/ADR-RES ovarian. Moreover, the GI50 with SNB-75 CNS was greater than 58.9 µM; in the experiment on TK-10 renal, 0.184 µM and 0.0841 µM; in the experiment on SF-268 CNS it was greater than 86 µM. Also, the TGI was greater than 100 µM with NCI-H23 lung; greater than 100 µM in the experiment with SK-OV-3 ovarian; greater than 100 µM in the experiment with CAKI-1 renal; 0.0941 µM with UACC-62 melanoma; 17.4 µM and > 10 µM in the experiment with SK-MEL-5 melanoma; greater than 100 µM in the experiment with OVCAR-8 ovarian. The TGI in the experiment on NCI/ADR-RES ovarian, in the experiment with SNB-75 CNS, with TK-10 renal and with SF-268 CNS was greater than 100 µM in each case.
For the molecule `O=C1C[C@@H]2OCC=C3C[N+]4([O-])CC[C@]56c7ccccc7N1[C@H]5[C@H]2[C@H]3C[C@@H]64` (some centres undefined), the GI50 in the experiment on NCI-H23 lung, in the experiment on SK-OV-3 ovarian, with CAKI-1 renal, with UACC-62 melanoma, with SK-MEL-5 melanoma and with OVCAR-8 ovarian was greater than 100 µM throughout. For the same molecule, the GI50 with NCI/ADR-RES ovarian, with SNB-75 CNS, in the experiment on TK-10 renal and with SF-268 CNS was greater than 100 µM in each case. For the same molecule, the TGI in the experiment with NCI-H23 lung, with SK-OV-3 ovarian, in the experiment on CAKI-1 renal, in the experiment with UACC-62 melanoma, in the experiment with SK-MEL-5 melanoma and with OVCAR-8 ovarian was greater than 100 µM throughout. The TGI in the experiment on NCI/ADR-RES ovarian, in the experiment with SNB-75 CNS, in the experiment with TK-10 renal and in the experiment with SF-268 CNS was greater than 100 µM in each case.
As to `O=C1[C@H](Cc2ccc(O)cc2)N2C(=O)CCN(C(=O)NCc3ccccc3)[C@H]2CN1Cc1cccc2ccccc12`, the GI50 in the experiment on NCI-H23 lung is 4.05 µM; in the experiment on SK-OV-3 ovarian, 2.74 µM; in the experiment with CAKI-1 renal, 14.2 µM; with UACC-62 melanoma it was 4.45 µM; in the experiment on SK-MEL-5 melanoma, 2.28 µM; in the experiment with OVCAR-8 ovarian, 0.959 µM. The GI50 with NCI/ADR-RES ovarian was 43.5 µM; in the experiment with SNB-75 CNS, 0.399 µM; in the experiment on TK-10 renal it was 3.88 µM; in the experiment with SF-268 CNS, 1.81 µM. In addition, the TGI is 34.5 µM in the experiment with NCI-H23 lung; 8.14 µM in the experiment with SK-OV-3 ovarian; greater than 80.1 µM in the experiment with CAKI-1 renal; 25 µM in the experiment on UACC-62 melanoma; 11.4 µM in the experiment with SK-MEL-5 melanoma; 13.5 µM in the experiment on OVCAR-8 ovarian. Further, the TGI in the experiment on NCI/ADR-RES ovarian is greater than 100 µM; in the experiment with SNB-75 CNS, 25.3 µM; in the experiment with TK-10 renal, 30.7 µM; with SF-268 CNS, 15.5 µM.
